We go through 67 compounds from ChEMBL document CHEMBL3880421, “Indazole compounds and pharmaceutical compositions for inhibiting protein kinases, and methods for their use” (2003).

The nature of test [1]: Antiproliferative activity against VEGF-stimulated HUVEC cells assessed as reduction in cell viability at 0.5 nM preincubated for 1 hr followed by addition of VEGF measured after 72 hrs by MTT assay. Format: functional. Particulars: Homo sapiens. (Tetrazolium dyes change colour on reduction, which living cells bring about.)
Test [2] is described as follows: Antiproliferative activity against VEGF-stimulated HUVEC cells assessed as reduction in cell viability at 2 nM preincubated for 1 hr followed by addition of VEGF measured after 72 hrs by MTT assay. Format: functional. Particulars: Homo sapiens.

The term inhibition denotes the relative decrease from the control value, in per cent.

As for `O=C(NNc1ccccn1)c1ccccc1Nc1ccc2c(/C=C/c3ccccn3)n[nH]c2c1`, in test [1], the inhibition at 0.0005 µM lay within 19 to 32%. The inhibition at 0.002 µM in test [2] was 35 to 92%.

As for `O=C(Nc1cc[nH]n1)c1ccccc1Nc1ccc2c(/C=C/c3ccccn3)n[nH]c2c1`, in test [1], the inhibition at 0.0005 µM is 20%. Further, the inhibition at 0.002 µM in test [2] was 25%.

Regarding `CCOC(CNC(=O)c1ccccc1Nc1ccc2c(/C=C/c3ccccn3)n[nH]c2c1)OCC`, the inhibition at 0.0005 µM in test [1] stood at 11%. Also, the inhibition at 0.002 µM in test [2] was 47%.

As to `O=C(NCCN1CCCCC1)c1ccccc1Nc1ccc2c(/C=C/c3ccccn3)n[nH]c2c1`, the inhibition at 0.0005 µM in test [1] came to 5%. Also, the inhibition at 0.002 µM in test [2] was found to be 19%.

For the compound `O=C(NOc1ccccc1)c1ccccc1Nc1ccc2c(/C=C/c3ccccn3)n[nH]c2c1`, in test [1], the inhibition at 0.0005 µM is 27%. In addition, in test [2], the inhibition at 0.002 µM amounted to 80%.

Turning to `O=C(NNC(=O)c1ccccc1Nc1ccc2c(/C=C/c3ccccn3)n[nH]c2c1)c1ccc[nH]1`, in test [1], the inhibition at 0.0005 µM is 60%. In addition, the inhibition at 0.002 µM in test [2] stood at 99%.

On to `C=CCONC(=O)c1ccccc1Nc1ccc2c(/C=C/c3ccccn3)n[nH]c2c1`, for which the inhibition at 0.0005 µM in test [1] was 51 to 92%. Also, the inhibition at 0.002 µM in test [2] was in the range of 103 to 108%.

In the case of `O=C(NCC(O)c1ccccc1)c1ccccc1Nc1ccc2c(/C=C/c3ccccn3)n[nH]c2c1` (stereo not given), the inhibition at 0.0005 µM in test [1] is 12%. The inhibition at 0.002 µM in test [2] came out at 55%.

For `O=C(NCCc1cccnc1)c1ccccc1Nc1ccc2c(/C=C/c3ccccn3)n[nH]c2c1`, in test [1], the inhibition at 0.0005 µM came to 23%. The inhibition at 0.002 µM in test [2] worked out at 61%.

Take `CC(C)OCCCNC(=O)c1ccccc1Nc1ccc2c(/C=C/c3ccccn3)n[nH]c2c1`: in test [1], the inhibition at 0.0005 µM came to 34%. In addition, the inhibition at 0.002 µM in test [2] was 99%.

For the compound `CC(CO)NC(=O)c1ccccc1Nc1ccc2c(/C=C/c3ccccn3)n[nH]c2c1` (stereo not given), the inhibition at 0.0005 µM in test [1] was 19%. Moreover, the inhibition at 0.002 µM in test [2] was found to be 28%.

Regarding `CCCCCC(C)NC(=O)c1ccccc1Nc1ccc2c(/C=C/c3ccccn3)n[nH]c2c1` (stereo not given), the inhibition at 0.0005 µM in test [1] is -1%. Moreover, the inhibition at 0.002 µM in test [2] came out at 14%.

On to `N=C(N)CNC(=O)c1ccccc1Nc1ccc2c(/C=C/c3ccccn3)n[nH]c2c1`, for which, in test [1], the inhibition at 0.0005 µM is 7%. Besides, the inhibition at 0.002 µM in test [2] is -1%.

Consider `CC(C)CCC(C)NC(=O)c1ccccc1Nc1ccc2c(/C=C/c3ccccn3)n[nH]c2c1` (stereo not given), for which, in test [1], the inhibition at 0.0005 µM is 6%. Also, in test [2], the inhibition at 0.002 µM came to 44%.

As to `O=C(O)CNC(=O)c1ccccc1Nc1ccc2c(/C=C/c3ccccn3)n[nH]c2c1`, the inhibition at 0.0005 µM in test [1] was 8%. In test [2], the inhibition at 0.002 µM was 23%.

As to `CC(C)(C)OC(=O)NCCNC(=O)c1ccccc1Nc1ccc2c(/C=C/c3ccccn3)n[nH]c2c1`, in test [1], the inhibition at 0.0005 µM amounted to 78%. Besides, the inhibition at 0.002 µM in test [2] came to 60%.

As to `CC1(C)OCC(CNC(=O)c2ccccc2Nc2ccc3c(/C=C/c4ccccn4)n[nH]c3c2)O1` (stereo not given), the inhibition at 0.0005 µM in test [1] stood at 28%. The inhibition at 0.002 µM in test [2] was 69%.

Consider `O=C(NCS(=O)(=O)O)c1ccccc1Nc1ccc2c(/C=C/c3ccccn3)n[nH]c2c1`, for which the inhibition at 0.0005 µM in test [1] came out at 2%. Moreover, the inhibition at 0.002 µM in test [2] was -3%.

As to `O=C(N[C@H](CO)Cc1c[nH]cn1)c1ccccc1Nc1ccc2c(/C=C/c3ccccn3)n[nH]c2c1`, in test [1], the inhibition at 0.0005 µM was found to be 22%. The inhibition at 0.002 µM in test [2] amounted to 24%.

Consider `O=C(NCC(c1ccccc1)c1ccccc1)c1ccccc1Nc1ccc2c(/C=C/c3ccccn3)n[nH]c2c1`, for which, in test [1], the inhibition at 0.0005 µM worked out at 11%. Further, in test [2], the inhibition at 0.002 µM was found to be 15%.

Take `O=C(NCCCN1CCCC1)c1ccccc1Nc1ccc2c(/C=C/c3ccccn3)n[nH]c2c1`: the inhibition at 0.0005 µM in test [1] is 20%. Besides, the inhibition at 0.002 µM in test [2] was 2%.

Turning to `CC(C)(C)c1cc(NC(=O)c2ccccc2Nc2ccc3c(/C=C/c4ccccn4)n[nH]c3c2)no1`, the inhibition at 0.0005 µM in test [1] was 15%. Besides, the inhibition at 0.002 µM in test [2] was 4%.

On to `CONC(=O)c1ccccc1Nc1ccc2c(/C=C/c3ccccn3)n[nH]c2c1`, for which, in test [1], the inhibition at 0.0005 µM was determined as 62%. The inhibition at 0.002 µM in test [2] turned out to be 99%.

As for `O=C(N[C@@H](CO)Cc1ccccc1)c1ccccc1Sc1ccc2c(/C=C/c3ccccn3)n[nH]c2c1`, the inhibition at 0.0005 µM in test [1] was -3%.

Regarding `O=C(NCCCc1ccccc1)c1ccccc1Nc1ccc2c(/C=C/c3ccccn3)n[nH]c2c1`, in test [1], the inhibition at 0.0005 µM was found to be 50%.

Turning to `CC(C)(C)c1cccc(NC(=O)c2ccccc2Sc2ccc3c(/C=C/c4ccccn4)n[nH]c3c2)c1`, the inhibition at 0.0005 µM in test [1] is -5%.

In the case of `O=C(N[C@H]1CC2CCC1C2)c1ccccc1Sc1ccc2c(/C=C/c3ccccn3)n[nH]c2c1` (stereo not given in full), in test [1], the inhibition at 0.0005 µM was -9%.

For `CC(O)c1cccc(NC(=O)c2ccccc2Sc2ccc3c(/C=C/c4ccccn4)n[nH]c3c2)c1` (stereo not given), the inhibition at 0.0005 µM in test [1] is -32%.

As for `O=C(NCc1ccc2c(c1)OCO2)c1ccccc1Nc1ccc2c(/C=C/c3ccccn3)n[nH]c2c1`, in test [1], the inhibition at 0.0005 µM is 46%.

Consider `O=C(NCc1ccco1)c1ccccc1Nc1ccc2c(/C=C/c3ccccn3)n[nH]c2c1`, for which the inhibition at 0.0005 µM in test [1] was determined as 70%.

`O=C(N[C@H]1CCc2ccccc21)c1ccccc1Sc1ccc2c(/C=C/c3ccccn3)n[nH]c2c1`: the inhibition at 0.0005 µM in test [1] was 8 to 15%.

Regarding `C[C@H](NC(=O)c1ccccc1Sc1ccc2c(/C=C/c3ccccn3)n[nH]c2c1)c1ccc2ccccc2c1`, the inhibition at 0.0005 µM in test [1] is -8%.

With `O=C(NCc1ccccc1)c1ccccc1Nc1ccc2c(/C=C/c3ccccn3)n[nH]c2c1`, in test [1], the inhibition at 0.0005 µM was determined as 70%.

For `Cc1cc(NC(=O)c2ccccc2Sc2ccc3c(/C=C/c4ccccn4)n[nH]c3c2)ccc1Cl`, the inhibition at 0.0005 µM in test [1] was -43%.

For `O=C(N[n+]1ccccc1)c1ccccc1Nc1ccc2c(/C=C/c3ccccn3)n[nH]c2c1`, the inhibition at 0.0005 µM in test [1] is 48%.

For the compound `C[C@@H](NC(=O)c1ccccc1Sc1ccc2c(/C=C/c3ccccn3)n[nH]c2c1)C1CCCCC1`, the inhibition at 0.0005 µM in test [1] turned out to be 9%.

Consider `CCCCNC(=O)c1ccccc1Nc1ccc2c(/C=C/c3ccccn3)n[nH]c2c1`, for which the inhibition at 0.0005 µM in test [1] worked out at 52%.

As for `COc1ccccc1NC(=O)c1ccccc1Sc1ccc2c(/C=C/c3ccccn3)n[nH]c2c1`, the inhibition at 0.0005 µM in test [1] was -8%.

Take `O=C(NNC(=O)c1ccccc1Nc1ccc2c(/C=C/c3ccccn3)n[nH]c2c1)c1ccccn1`: the inhibition at 0.0005 µM in test [1] stood at 69%.

On to `CCONC(=O)c1ccccc1Nc1ccc2c(/C=C/c3ccccn3)n[nH]c2c1`, for which the inhibition at 0.0005 µM in test [1] was determined as 72%.

Turning to `Cc1ccc(F)c(NC(=O)c2ccccc2Sc2ccc3c(/C=C/c4ccccn4)n[nH]c3c2)c1`, in test [1], the inhibition at 0.0005 µM is -1%.

For the compound `O=C(NC12CC3CC(CC(C3)C1)C2)c1ccccc1Sc1ccc2c(/C=C/c3ccccn3)n[nH]c2c1`, the inhibition at 0.0005 µM in test [1] was determined as 3%.

For `Cc1ccc(Cl)cc1NC(=O)c1ccccc1Sc1ccc2c(/C=C/c3ccccn3)n[nH]c2c1`, the inhibition at 0.0005 µM in test [1] was 22%.

As to `O=C(Nc1c(F)cccc1Cl)c1ccccc1Sc1ccc2c(/C=C/c3ccccn3)n[nH]c2c1`, the inhibition at 0.0005 µM in test [1] is 12%.

As to `Cc1cccc(NC(=O)c2ccccc2Sc2ccc3c(/C=C/c4ccccn4)n[nH]c3c2)c1`, in test [1], the inhibition at 0.0005 µM stood at 3%.

On to `CCCCC(NC(=O)c1ccccc1Sc1ccc2c(/C=C/c3ccccn3)n[nH]c2c1)C(=O)NO` (stereo not given), for which the inhibition at 0.0005 µM in test [1] is 0%.

For `C[C@H](NC(=O)c1ccccc1Sc1ccc2c(/C=C/c3ccccn3)n[nH]c2c1)C1CCCCC1`, the inhibition at 0.0005 µM in test [1] is -12%.

As for `C[C@H](NC(=O)c1ccccc1Sc1ccc2c(/C=C/c3ccccn3)n[nH]c2c1)c1cccc2ccccc12`, in test [1], the inhibition at 0.0005 µM is -20%.

In the case of `O=C(NC[C@@H]1CCCO1)c1ccccc1Sc1ccc2c(/C=C/c3ccccn3)n[nH]c2c1`, in test [1], the inhibition at 0.0005 µM was -8%.

As to `CC(C)ONC(=O)c1ccccc1Nc1ccc2c(/C=C/c3ccccn3)n[nH]c2c1`, the inhibition at 0.0005 µM in test [1] was 35%.

Turning to `COc1cccc(OC)c1NC(=O)c1ccccc1Sc1ccc2c(/C=C/c3ccccn3)n[nH]c2c1`, in test [1], the inhibition at 0.0005 µM is -57%.

On to `O=C(NCCc1cccs1)c1ccccc1Sc1ccc2c(/C=C/c3ccccn3)n[nH]c2c1`, for which the inhibition at 0.0005 µM in test [1] turned out to be 36%.

Turning to `CC(C)c1cccc(NC(=O)c2ccccc2Sc2ccc3c(/C=C/c4ccccn4)n[nH]c3c2)c1`, in test [1], the inhibition at 0.0005 µM came out at 8%.

Regarding `CCCOCCNC(=O)c1ccccc1Nc1ccc2c(/C=C/c3ccccn3)n[nH]c2c1`, in test [1], the inhibition at 0.0005 µM was 28%.

On to `CCC(C)(C)NC(=O)c1ccccc1Sc1ccc2c(/C=C/c3ccccn3)n[nH]c2c1`, for which the inhibition at 0.0005 µM in test [1] is -29%.

For the compound `C[C@@H](CNC(=O)c1ccccc1Sc1ccc2c(/C=C/c3ccccn3)n[nH]c2c1)c1ccccc1`, the inhibition at 0.0005 µM in test [1] came to 3%.

Consider `O=C(N[C@H](CO)[C@H](O)c1ccccc1)c1ccccc1Sc1ccc2c(/C=C/c3ccccn3)n[nH]c2c1`, for which the inhibition at 0.0005 µM in test [1] is -1%.

As to `Cc1ccc(F)cc1NC(=O)c1ccccc1Sc1ccc2c(/C=C/c3ccccn3)n[nH]c2c1`, the inhibition at 0.0005 µM in test [1] is 12%.

`COc1ccc(CNC(=O)c2ccccc2Nc2ccc3c(/C=C/c4ccccn4)n[nH]c3c2)cc1`: the inhibition at 0.0005 µM in test [1] stood at 63%.

For the compound `Cc1cc(C)c(O)c(NC(=O)c2ccccc2Sc2ccc3c(/C=C/c4ccccn4)n[nH]c3c2)c1`, in test [1], the inhibition at 0.0005 µM was -5%.

`CCC(NC(=O)c1ccccc1Nc1ccc2c(/C=C/c3ccccn3)n[nH]c2c1)c1ccccc1` (stereo not given): in test [1], the inhibition at 0.0005 µM came out at 45%.

As for `CCCCc1ccc(NC(=O)c2ccccc2Sc2ccc3c(/C=C/c4ccccn4)n[nH]c3c2)cc1`, the inhibition at 0.0005 µM in test [1] was -22%.

In the case of `O=C(NC[C@H]1CCCO1)c1ccccc1Sc1ccc2c(/C=C/c3ccccn3)n[nH]c2c1`, the inhibition at 0.0005 µM in test [1] was -11%.

Turning to `O=C(N[C@@H](CO)c1ccccc1)c1ccccc1Sc1ccc2c(/C=C/c3ccccn3)n[nH]c2c1`, in test [1], the inhibition at 0.0005 µM was -17%.

Turning to `CCc1cccc(NC(=O)c2ccccc2Sc2ccc3c(/C=C/c4ccccn4)n[nH]c3c2)n1`, the inhibition at 0.0005 µM in test [1] was -12%.

In the case of `O=C(Nc1cncc(Cl)n1)c1ccccc1Sc1ccc2c(/C=C/c3ccccn3)n[nH]c2c1`, the inhibition at 0.0005 µM in test [1] came out at 17%.

For `O=C(Nc1cccc2ccc(O)cc12)c1ccccc1Sc1ccc2c(/C=C/c3ccccn3)n[nH]c2c1`, the inhibition at 0.0005 µM in test [1] was -6%.
